Laboratory results published in patent US10538535B2, “Antitumoral compounds” (priority 2017, dated 2020).
Where two headings read alike, the source gives them in different places.

Legend:
Experiment in all cases: cells
Settings in all cases: for CC50: read-out: LC50; for IC (TGI): read-out: TGI
A549 cells = system: A549 cells
Excerpt: (§1) The aim of this assay is to evaluate the in vitro cytostatic (ability to delay or arrest tumor cell growth) or cytotoxic (ability to kill tumor cells) activity of the samples being tested.
(§2) A colorimetric assay, using sulforhodamine B (SRB) reaction has been adapted to provide a quantitative measurement of cell growth and viability (following the technique described by Skehan et al. J. Natl. Cancer Inst. 1990, 82, 1107-1112). Another colorimetric assay based on 3-(4,5-Dimethylthiazol-2-yl)-2,5-diphenyltetrazolium bromide (MTT) reduction to a purple formazan has been also used to assess the antiproliferative activity (following the technique described by Mosmann et al. J. Immunol. Meth. 1983, 65, 55-63).
(§3) These forms of assays employ 96-well cell culture microplates following the standards of the American National Standards Institute and the Society for Laboratory Automation and Screening (ANSI SLAS 1-2004 (R2012) Oct. 12, 2011. All the cell lines used in this study were obtained from the American Type Culture Collection (ATCC) and derive from different types of human cancer.
(§4) A549, HT29, MDA-MB-231 and PSN1 cells were maintained in Dulbecco's Modified Eagle Medium (DMEM) while PC-3 and 22Rv1 cells were maintained in Roswell Park Memorial Institute Medium (RPMI). All cell lines were supplemented with 10% Fetal Bovine Serum (FBS), 2 mM L-glutamine, 100 U/mL penicillin, and 100 […] at 37° C., 5% CO2 and 98% humidity. For the experiments, cells were harvested from subconfluent cultures using trypsinization and resuspended in fresh medium before counting and plating.
(§5) A549, HT29, MDA-MB-231 and PSN1 cells were seeded in 96 well microtiter plates, at 5000 cells per well in aliquots of 150 μL, and allowed to attach to the plate surface for 18 hours (overnight) in drug free medium. After that, one control (untreated) plate of each cell line was fixed (as described below) and used for time zero reference value. Culture plates were then treated with test compounds (50 μL aliquots of 4× stock solutions in complete culture medium plus 4% DMSO) using ten 2/5 serial dilutions (concentrations ranging from 10 to 0.003 μg/mL) and triplicate cultures (1% final concentration in DMSO). After 72 hours treatment, the antitumor effect was measured by using the SRB methodology: Briefly, cells were washed twice with PBS, fixed for 15 min in 1% glutaraldehyde solution at room temperature, rinsed twice in PBS, and stained in 0.4% SRB solution for 30 min at room temperature. Cells were then rinsed several times with 1% acetic acid solution and air-dried at room temperature.
(§6) Effects on cell growth and survival were estimated by applying the NCI algorithm (Boyd M R and Paull K D. Drug Dev. Res. 1995, 34, 91-104). The values obtained in triplicate cultures were fitted by nonlinear regression to a four-parameters logistic curve by nonlinear regression analysis.

HT29 cells = system: HT29 cells
Excerpt: as §1, §2, §3, §4, §5, §6

MDA-MB-231 cells = system: MDA-MB-231 cells
Excerpt: as §1, §2, §3, §4, §5, §6

PSN1 cells = system: PSN1 cells
Excerpt: as §1, §2, §3, §4, §5, §6

[1] = Homo sapiens, PSN1, 72 h, PSN1, 72 hours treatment, SRB
[2] = MDA-MB-231, 72 hours treatment, SRB

| Compound | GI50 (A549 cells; Homo sapiens, A549, 72 h) [nM] | CC50 (A549 cells; Homo sapiens, A549, 72 h) [nM] | IC (TGI) (A549 cells; Homo sapiens, A549, 72 h) [nM] | GI50 (HT29 cells; Homo sapiens, HT-29, 72 h) [nM] | CC50 (HT29 cells; Homo sapiens, HT-29, 72 h) [nM] | IC (TGI) (HT29 cells; Homo sapiens, HT-29, 72 h) [nM] | GI50 (MDA-MB-231 cells; Homo sapiens, MDA-MB-231, 72 h) [nM] | CC50 (MDA-MB-231 cells; Homo sapiens, MDA-MB-231, 72 h) [nM] | IC (TGI) (MDA-MB-231 cells; Homo sapiens, MDA-MB-231, 72 h) [nM] | CC50 (PSN1 cells; Homo sapiens, PSN1, 72 h) [nM] | IC (TGI) (PSN1 cells; Homo sapiens, PSN1, 72 h) [nM] | GI50 (PSN1 cells; [1]) [nM] | other results |
| --- | --- | --- | --- | --- | --- | --- | --- | --- | --- | --- | --- | --- | --- |
| COc1c(C)cc2c(c1O)[C@@H]1[C@@H]3[C@@H]4SC[C@]5(N[C@H](C(=O)O)Cc6c5[nH]c5ccccc65)C(=O)OC[C@@H](c5c6c(c(C)c(OC(C)=O)c54)OCO6)N3[C@@H](O)[C@H](C2)N1C [Compound 15-S] | > 1250 | > 1250 | > 1250 | 300 | 914 | 513 | 163 | 275 | 213 | 839 | 463 | – | GI50 (PSN1 cells; Homo sapiens, PSN1, 72 h): 238 nM |
| COc1c(C)cc2c(c1O)[C@@H]1[C@@H]3[C@@H]4SC[C@]5(N[C@@H](CO)Cc6c5oc5ccccc65)C(=O)OC[C@@H](c5c6c(c(C)c(OC(C)=O)c54)OCO6)N3[C@@H](C#N)[C@H](C2)N1C [Compound 38-R] | 0.654 | > 126 | 1.04 | 0.541 | > 126 | 0.591 | 0.453 | 2.01 | 0.843 | 1.76 | 0.994 | 0.654 | – |
| COc1ccc2[nH]c3c(c2c1)CCNC31CSC2c3c(OC(C)=O)c(C)c4c(c3C(COC1=O)N1C(C#N)C3Cc5cc(C)c(OC)c(O)c5C(C21)N3C)OCO4 (stereo not drawn) [E] | – | – | – | – | – | – | – | – | – | – | – | – | GI50 (A549 cells; A549, 72 hours treatment, SRB): 3.28 nM; TGI (A549 cells; A549, 72 hours treatment, SRB): 3.40E−09 Molar; CC50 (A549 cells; A549, 72 hours treatment, SRB): 4.41 nM; GI50 (HT29 cells; HT29, 72 hours treatment, SRB): 3.15 nM; TGI (HT29 cells; HT29, 72 hours treatment, SRB): 3.40E−09 Molar; CC50 (HT29 cells; HT29, 72 hours treatment, SRB): > 126 nM; GI50 (MDA-MB-231 cells; [2]): 2.27 nM; TGI (MDA-MB-231 cells; [2]): 3.78E−09 Molar; CC50 (MDA-MB-231 cells; [2]): 7.43 nM; GI50 (PSN1 cells; PSN1, 72 hours treatment, SRB): 2.77 nM; TGI (PSN1 cells; PSN1, 72 hours treatment, SRB): 4.53E−09 Molar; CC50 (PSN1 cells; PSN1, 72 hours treatment, SRB): 8.94 nM |
| COc1c(C)cc2c(c1O)[C@@H]1[C@@H]3[C@@H]4SC[C@]5(N[C@H](CN)Cc6c5oc5ccccc65)C(=O)OC[C@@H](c5c6c(c(C)c(OC(C)=O)c54)OCO6)N3[C@@H](O)[C@H](C2)N1C [Compound 47-S] | – | > 127 | – | – | > 127 | – | – | 16.6 | – | 12.7 | – | – | – |
| COc1ccc2[nH]c3c(c2c1)C[C@H](CO)N[C@]31CS[C@@H]2c3c(OC(C)=O)c(C)c4c(c3[C@H](COC1=O)N1[C@@H]2[C@H]2c3c(cc(C)c(OC)c3O)C[C@@H]([C@@H]1C#N)N2C)OCO4 [Compound 18-R] | – | – | 1.34 | – | – | 1.34 | – | 1.46 | 1.34 | – | 1.06 | 0.57 | GI50 (PSN1 cells; PSN1, 72 hours treatment, SRB): 0.571 nM |
| COc1c(C)cc2c(c1O)[C@@H]1[C@@H]3[C@@H]4SC[C@]5(N[C@H](COC(C)=O)Cc6c5[nH]c5ccccc65)C(=O)OC[C@@H](c5c6c(c(C)c(OC(C)=O)c54)OCO6)N3[C@@H](C#N)[C@H](C2)N1C [Compound 3a-S] | 3.11 | > 120 | 3.23 | 2.99 | > 120 | 3.23 | 2.87 | 4.9 | 3.59 | 12 | 3.59 | 2.15 | – |
| C=CCOC(=O)NC[C@H]1Cc2c([nH]c3ccc(OC)cc23)[C@@]2(CS[C@@H]3c4c(OC(C)=O)c(C)c5c(c4[C@H](COC2=O)N2[C@@H]3[C@H]3c4c(cc(C)c(OC)c4O)C[C@@H]([C@@H]2C#N)N3C)OCO5)N1 [Compound 25-R] | 1.32 | 9.92 | 2.43 | 1.54 | > 110 | 2.76 | – | 8.38 | 2.54 | 6.73 | 2.32 | – | – |
| COc1ccc2[nH]c3c(c2c1)C[C@H](CN)N[C@]31CS[C@@H]2c3c(OC(C)=O)c(C)c4c(c3[C@H](COC1=O)N1[C@@H]2[C@H]2c3c(cc(C)c(OC)c3O)C[C@@H]([C@@H]1O)N2C)OCO4 [Compound 27-R] | 2.09 | 10.1 | 3.93 | 0.504 | > 123 | 0.553 | 0.307 | 0.86 | 0.541 | 2.46 | 1.17 | 0.639 | – |
| COc1c(C)cc2c(c1O)[C@@H]1[C@@H]3[C@@H]4SC[C@]5(N[C@H](CO)Cc6c5oc5ccccc65)C(=O)OC[C@@H](c5c6c(c(C)c(OC(C)=O)c54)OCO6)N3[C@@H](C#N)[C@H](C2)N1C [Compound 38-S] | 8.05 | 9.44 | 8.55 | 4.53 | > 126 | 7.05 | 2.52 | 7.8 | 4.28 | 15.1 | 8.18 | 5.03 | – |
| COc1ccc2[nH]c3c(c2c1)C[C@H](CN)N[C@]31CS[C@@H]2c3c(OC(C)=O)c(C)c4c(c3[C@H](COC1=O)N1[C@@H]2[C@H]2c3c(cc(C)c(OC)c3O)C[C@@H]([C@@H]1C#N)N2C)OCO4 [Compound 26-R] | 1.94 | > 122 | 3.4 | 0.729 | > 122 | 1.58 | 1.17 | 1.46 | 1.22 | 3.52 | 1.7 | 0.972 | – |
| COc1ccc2[nH]c3c(c2c1)C[C@@H](C(=O)O)N[C@]31CS[C@@H]2c3c(OC(C)=O)c(C)c4c(c3[C@H](COC1=O)N1[C@@H]2[C@H]2c3c(cc(C)c(OC)c3O)C[C@@H]([C@@H]1O)N2C)OCO4 [Compound 29-S] | 615 | > 1210 | > 1210 | 362 | 832 | 531 | 217 | 688 | 374 | 688 | 507 | – | GI50 (PSN1 cells; Homo sapiens, PSN1, 72 h): 386 nM |
